From PubChem BioAssay AID2060496 (Molecular Pharmacology Branch, DTP, NCI, 2025)

Tested on: 276233-004-R-J1-PDC complex spheroid viability
Assay: Anticancer human tumor 276233-004-R-J1-PDC patient-derived colon adenocarcinoma cell line growth inhibition [GQUAD]
Conditions: for IC50: curve of first compound; for viability, T/C: stronger effect = lower value
Summary of the method: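 Tumor cells were grown as complex spheroids with HUVEC endothelial cells and mesenchymal stem cells as stroma. G-quadruplex stabilizers were combined with targeted agents over half-log dilutions from near the clinical Cmax, or from 10 microM.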

[1] = second compound 0.0316 µM, first compound 0.0316 µM
[2] = second compound 0.0316 µM, first compound 0.1 µM
[3] = second compound 0.0316 µM, first compound 0.316 µM
[4] = second compound 0.0316 µM, first compound 1 µM
[5] = second compound 0.0316 µM, first compound 3.16 µM
[6] = second compound 0.0316 µM, first compound 10 µM
[7] = second compound 0.1 µM, first compound 0.0316 µM
[8] = second compound 0.1 µM, first compound 0.1 µM
[9] = second compound 0.1 µM, first compound 0.316 µM
[10] = second compound 0.1 µM, first compound 1 µM
[11] = second compound 0.1 µM, first compound 3.16 µM
[12] = second compound 0.1 µM, first compound 10 µM
[13] = second compound 0.316 µM, first compound 0.0316 µM
[14] = second compound 0.316 µM, first compound 0.1 µM
[15] = second compound 0.316 µM, first compound 0.316 µM
[16] = second compound 0.316 µM, first compound 1 µM
[17] = second compound 0.316 µM, first compound 3.16 µM
[18] = second compound 0.316 µM, first compound 10 µM
[19] = second compound 1 µM, first compound 0.0316 µM
[20] = second compound 1 µM, first compound 0.1 µM
[21] = second compound 1 µM, first compound 0.316 µM
[22] = second compound 1 µM, first compound 1 µM
[23] = second compound 1 µM, first compound 3.16 µM
[24] = second compound 1 µM, first compound 10 µM
[25] = second compound 3.16 µM, first compound 0.0316 µM
[26] = second compound 3.16 µM, first compound 0.1 µM
[27] = second compound 3.16 µM, first compound 0.316 µM
[28] = second compound 3.16 µM, first compound 1 µM
[29] = second compound 3.16 µM, first compound 3.16 µM
[30] = second compound 3.16 µM, first compound 10 µM
[31] = second compound 10 µM, first compound 0.0316 µM
[32] = second compound 10 µM, first compound 0.1 µM
[33] = second compound 10 µM, first compound 0.316 µM
[34] = second compound 10 µM, first compound 1 µM
[35] = second compound 10 µM, first compound 3.16 µM
[36] = second compound 10 µM, first compound 10 µM
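Also: spheroids exposed to drugs for seven days.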
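For viability, T/C in this document: 100% = DMSO vehicle control viability.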

CC(C)(O)C1CCC(Nc2ccc3ncc(-c4cccc(C(F)(F)F)c4)n3n2)CC1 (centres undefined) + Cc1cnc(CNC(=O)c2c(=O)c3ccc(N4CCCN(C)CC4)nc3n3c2sc2ccccc23)cn1
IC50 (second compound 0.0316 µM): > 10 µM
IC50 (second compound 0.1 µM): > 10 µM
IC50 (second compound 0.316 µM): > 10 µM
IC50 (second compound 1 µM): 3 µM
IC50 (second compound 3.16 µM): 0.994 µM
IC50 (second compound 10 µM): 0.995 µM
viability, T/C [1]: 94.9%
viability, T/C [2]: 79.8%
viability, T/C [3]: 81.8%
viability, T/C [4]: 70.6%
viability, T/C [5]: 55.2%
viability, T/C [6]: 58.8%
viability, T/C [7]: 83.2%
viability, T/C [8]: 109%
viability, T/C [9]: 78.4%
viability, T/C [10]: 68.9%
viability, T/C [11]: 49.4%
viability, T/C [12]: 55.6%
viability, T/C [13]: 84.3%
viability, T/C [14]: 92.5%
viability, T/C [15]: 83.7%
viability, T/C [16]: 63.1%
viability, T/C [17]: 54%
viability, T/C [18]: 49.5%
viability, T/C [19]: 80.4%
viability, T/C [20]: 89.2%
viability, T/C [21]: 84.7%
viability, T/C [22]: 67.7%
viability, T/C [23]: 50.4%
viability, T/C [24]: 45.4%
viability, T/C [25]: 79.9%
viability, T/C [26]: 74.3%
viability, T/C [27]: 69.8%
viability, T/C [28]: 51.1%
viability, T/C [29]: 34.7%
viability, T/C [30]: 39.1%
viability, T/C [31]: 75.6%
viability, T/C [32]: 57%
viability, T/C [33]: 58.6%
viability, T/C [34]: 50.5%
viability, T/C [35]: 7.86%
viability, T/C [36]: 3.2%

CC1COCCN1c1cc(C2(S(C)(=N)=O)CC2)nc(-c2ccnc3[nH]ccc23)n1 (centres undefined) + Cc1cnc(CNC(=O)c2c(=O)c3ccc(N4CCCN(C)CC4)nc3n3c2sc2ccccc23)cn1
IC50 (second compound 0.0316 µM): > 10 µM
IC50 (second compound 0.1 µM): > 10 µM
IC50 (second compound 0.316 µM): > 10 µM
IC50 (second compound 1 µM): > 10 µM
IC50 (second compound 3.16 µM): 5.9 µM
IC50 (second compound 10 µM): > 10 µM
viability, T/C [1]: 99%
viability, T/C [2]: 72.1%
viability, T/C [3]: 90.8%
viability, T/C [4]: 77.4%
viability, T/C [5]: 75.3%
viability, T/C [6]: 60.2%
viability, T/C [7]: 82%
viability, T/C [8]: 76.5%
viability, T/C [9]: 76%
viability, T/C [10]: 92.6%
viability, T/C [11]: 80.2%
viability, T/C [12]: 64.5%
viability, T/C [13]: 75.2%
viability, T/C [14]: 87.8%
viability, T/C [15]: 83.5%
viability, T/C [16]: 78.2%
viability, T/C [17]: 79.1%
viability, T/C [18]: 58.6%
viability, T/C [19]: 75.8%
viability, T/C [20]: 72.3%
viability, T/C [21]: 72.9%
viability, T/C [22]: 58.7%
viability, T/C [23]: 70.9%
viability, T/C [24]: 53%
viability, T/C [25]: 64.5%
viability, T/C [26]: 67.6%
viability, T/C [27]: 75.4%
viability, T/C [28]: 69.3%
viability, T/C [29]: 57%
viability, T/C [30]: 41.9%
viability, T/C [31]: 63.3%
viability, T/C [32]: 66%
viability, T/C [33]: 73%
viability, T/C [34]: 58.8%
viability, T/C [35]: 65%
viability, T/C [36]: 42.8%
